Results published in ChEMBL document CHEMBL1134072, “Anodic oxidation of ifosfamide and cyclophosphamide: a biomimetic metabolism model of the oxazaphosphorinane anticancer drugs” (Bioorg Med Chem Lett, 2001).

Experiment: In vitro cytotoxicity tested as inhibitory concentration against carcinoma KB cell line
Assay type: functional, cell-based
Conditions: Homo sapiens

Row | SMILES | IC50 [µM]
1 | CO[C@@H]1CCOP(=O)(NCCCl)N1CCCl (stereo partly drawn) | 22
2 | O=P1(NCCCl)OCCC(O)N1CCCl (stereo not drawn) [ALDOIFOSFAMIDE] | 10
3 | CO[C@H]1CCOP(=O)(NCCCl)N1CCCl (stereo partly drawn) | 20
